ChEMBL document CHEMBL5465560, “Selectivity Literature for EUbOPEN Chemogenomic Library” (2024)
Values belong to the molecule of their own block, whether it stands above or below them.

Columns and labels:
[1] = biological target: T1, Tyrosine-protein kinase JAK3 (Homo sapiens) (UniProt P52333); assay: Selectivity interaction (Kinase panel (literature)) EUB0001199aCl JAK3; details: at 1 µM
T1 sequence (whole entry): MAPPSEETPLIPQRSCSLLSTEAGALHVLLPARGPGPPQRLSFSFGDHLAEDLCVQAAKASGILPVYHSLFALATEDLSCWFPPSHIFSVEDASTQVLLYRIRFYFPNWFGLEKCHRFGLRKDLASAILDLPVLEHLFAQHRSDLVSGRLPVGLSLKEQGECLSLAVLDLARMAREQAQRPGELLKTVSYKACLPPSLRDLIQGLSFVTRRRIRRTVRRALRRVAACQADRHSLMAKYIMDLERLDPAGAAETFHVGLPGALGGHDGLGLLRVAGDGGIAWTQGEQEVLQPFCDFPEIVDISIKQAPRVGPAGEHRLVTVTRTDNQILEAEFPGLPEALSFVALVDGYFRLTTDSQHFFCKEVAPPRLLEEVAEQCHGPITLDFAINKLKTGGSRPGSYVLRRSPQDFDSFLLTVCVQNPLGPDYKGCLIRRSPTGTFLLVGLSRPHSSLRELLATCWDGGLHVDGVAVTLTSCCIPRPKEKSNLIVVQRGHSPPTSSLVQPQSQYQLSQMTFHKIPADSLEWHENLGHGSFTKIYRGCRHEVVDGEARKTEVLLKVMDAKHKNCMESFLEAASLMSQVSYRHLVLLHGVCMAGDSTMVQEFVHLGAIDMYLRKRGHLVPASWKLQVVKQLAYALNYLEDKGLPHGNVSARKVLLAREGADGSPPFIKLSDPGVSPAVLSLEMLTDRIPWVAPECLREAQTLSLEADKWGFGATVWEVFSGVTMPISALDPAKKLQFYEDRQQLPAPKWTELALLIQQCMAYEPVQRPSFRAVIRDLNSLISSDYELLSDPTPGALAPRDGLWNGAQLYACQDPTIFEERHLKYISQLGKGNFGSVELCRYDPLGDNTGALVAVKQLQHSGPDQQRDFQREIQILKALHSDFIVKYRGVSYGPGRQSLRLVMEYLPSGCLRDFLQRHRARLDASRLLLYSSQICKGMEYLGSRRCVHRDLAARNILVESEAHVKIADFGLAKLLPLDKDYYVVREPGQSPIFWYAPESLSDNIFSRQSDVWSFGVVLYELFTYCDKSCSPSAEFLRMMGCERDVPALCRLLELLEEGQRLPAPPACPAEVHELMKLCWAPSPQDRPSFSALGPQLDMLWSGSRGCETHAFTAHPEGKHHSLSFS

[2] = biological target: Ribosomal protein S6 kinase alpha-6 (Homo sapiens, UniProt Q9UK32); details: at 10 µM
[3] = biological target: T2, Peripheral plasma membrane protein CASK (Homo sapiens) (UniProt O14936); assay: Selectivity interaction (KinomeScan (DiscoverX)) EUB0001079a CASK; details: at 1 µM
T2 sequence (whole entry): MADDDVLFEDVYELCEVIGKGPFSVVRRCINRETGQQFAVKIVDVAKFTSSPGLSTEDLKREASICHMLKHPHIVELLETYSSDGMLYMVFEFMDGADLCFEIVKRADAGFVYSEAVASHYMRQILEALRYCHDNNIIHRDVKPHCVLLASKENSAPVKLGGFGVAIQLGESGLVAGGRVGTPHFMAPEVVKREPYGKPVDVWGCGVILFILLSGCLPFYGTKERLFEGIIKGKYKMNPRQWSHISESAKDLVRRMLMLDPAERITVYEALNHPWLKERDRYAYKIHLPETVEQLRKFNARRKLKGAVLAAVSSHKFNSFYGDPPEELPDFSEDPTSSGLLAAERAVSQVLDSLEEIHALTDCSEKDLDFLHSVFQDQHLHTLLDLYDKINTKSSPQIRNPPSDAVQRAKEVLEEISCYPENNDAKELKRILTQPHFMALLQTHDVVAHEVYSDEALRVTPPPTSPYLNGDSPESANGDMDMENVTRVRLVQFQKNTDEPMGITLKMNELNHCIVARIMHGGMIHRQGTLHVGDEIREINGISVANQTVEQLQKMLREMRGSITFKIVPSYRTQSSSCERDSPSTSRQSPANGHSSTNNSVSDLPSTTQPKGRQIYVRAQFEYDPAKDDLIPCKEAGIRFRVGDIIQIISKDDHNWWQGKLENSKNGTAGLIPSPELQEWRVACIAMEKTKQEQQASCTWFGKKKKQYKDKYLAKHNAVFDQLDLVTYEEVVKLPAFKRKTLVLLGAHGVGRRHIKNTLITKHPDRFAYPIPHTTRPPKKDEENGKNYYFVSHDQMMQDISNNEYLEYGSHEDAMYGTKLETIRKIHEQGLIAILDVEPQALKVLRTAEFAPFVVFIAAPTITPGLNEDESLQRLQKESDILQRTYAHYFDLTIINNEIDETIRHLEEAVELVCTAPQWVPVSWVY

[4] = tested on: Epidermal growth factor receptor (Homo sapiens), P00533 [T790M]; assay: (§1) Selectivity interaction (KinomeScan (DiscoverX)) EUB0000666a EGFR; details: at 10 µM
Epidermal growth factor receptor (Homo sapiens), P00533 [T790M], sequence (P00533 whole entry T790M): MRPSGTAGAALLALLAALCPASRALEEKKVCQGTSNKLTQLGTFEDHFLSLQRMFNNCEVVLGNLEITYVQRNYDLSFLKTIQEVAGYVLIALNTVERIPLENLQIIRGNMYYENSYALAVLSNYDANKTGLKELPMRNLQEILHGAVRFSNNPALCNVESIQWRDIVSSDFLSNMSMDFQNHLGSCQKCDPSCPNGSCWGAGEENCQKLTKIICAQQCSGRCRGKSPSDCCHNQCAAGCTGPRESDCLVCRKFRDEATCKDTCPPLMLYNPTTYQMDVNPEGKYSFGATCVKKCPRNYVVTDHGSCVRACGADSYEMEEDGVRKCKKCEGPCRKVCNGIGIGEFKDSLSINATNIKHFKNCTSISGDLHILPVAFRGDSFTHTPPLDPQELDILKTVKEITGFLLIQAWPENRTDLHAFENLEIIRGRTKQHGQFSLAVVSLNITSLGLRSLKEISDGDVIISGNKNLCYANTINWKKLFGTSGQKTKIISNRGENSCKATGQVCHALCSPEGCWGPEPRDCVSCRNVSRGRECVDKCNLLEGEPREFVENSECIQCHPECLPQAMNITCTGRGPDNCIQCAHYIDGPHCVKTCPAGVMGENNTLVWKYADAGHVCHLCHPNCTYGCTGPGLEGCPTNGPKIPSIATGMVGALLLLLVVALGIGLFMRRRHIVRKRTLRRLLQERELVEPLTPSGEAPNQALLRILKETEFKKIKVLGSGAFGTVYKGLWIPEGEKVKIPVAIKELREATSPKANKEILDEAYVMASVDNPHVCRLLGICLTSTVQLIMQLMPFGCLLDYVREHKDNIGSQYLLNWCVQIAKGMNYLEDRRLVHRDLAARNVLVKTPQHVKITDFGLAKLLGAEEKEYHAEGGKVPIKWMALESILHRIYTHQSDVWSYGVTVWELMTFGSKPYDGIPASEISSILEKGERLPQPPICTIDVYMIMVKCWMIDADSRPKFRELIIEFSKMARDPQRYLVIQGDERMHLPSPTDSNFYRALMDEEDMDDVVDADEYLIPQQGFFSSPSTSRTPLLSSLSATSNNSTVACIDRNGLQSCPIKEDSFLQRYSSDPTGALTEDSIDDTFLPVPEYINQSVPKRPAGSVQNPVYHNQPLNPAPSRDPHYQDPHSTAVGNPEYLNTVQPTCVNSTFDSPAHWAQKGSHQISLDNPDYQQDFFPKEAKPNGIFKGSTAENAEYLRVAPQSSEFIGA

[5] = tested on: Epidermal growth factor receptor (Homo sapiens), P00533 [L858R]; assay: as §1; details: at 10 µM
Epidermal growth factor receptor (Homo sapiens), P00533 [L858R], sequence (P00533 whole entry L858R): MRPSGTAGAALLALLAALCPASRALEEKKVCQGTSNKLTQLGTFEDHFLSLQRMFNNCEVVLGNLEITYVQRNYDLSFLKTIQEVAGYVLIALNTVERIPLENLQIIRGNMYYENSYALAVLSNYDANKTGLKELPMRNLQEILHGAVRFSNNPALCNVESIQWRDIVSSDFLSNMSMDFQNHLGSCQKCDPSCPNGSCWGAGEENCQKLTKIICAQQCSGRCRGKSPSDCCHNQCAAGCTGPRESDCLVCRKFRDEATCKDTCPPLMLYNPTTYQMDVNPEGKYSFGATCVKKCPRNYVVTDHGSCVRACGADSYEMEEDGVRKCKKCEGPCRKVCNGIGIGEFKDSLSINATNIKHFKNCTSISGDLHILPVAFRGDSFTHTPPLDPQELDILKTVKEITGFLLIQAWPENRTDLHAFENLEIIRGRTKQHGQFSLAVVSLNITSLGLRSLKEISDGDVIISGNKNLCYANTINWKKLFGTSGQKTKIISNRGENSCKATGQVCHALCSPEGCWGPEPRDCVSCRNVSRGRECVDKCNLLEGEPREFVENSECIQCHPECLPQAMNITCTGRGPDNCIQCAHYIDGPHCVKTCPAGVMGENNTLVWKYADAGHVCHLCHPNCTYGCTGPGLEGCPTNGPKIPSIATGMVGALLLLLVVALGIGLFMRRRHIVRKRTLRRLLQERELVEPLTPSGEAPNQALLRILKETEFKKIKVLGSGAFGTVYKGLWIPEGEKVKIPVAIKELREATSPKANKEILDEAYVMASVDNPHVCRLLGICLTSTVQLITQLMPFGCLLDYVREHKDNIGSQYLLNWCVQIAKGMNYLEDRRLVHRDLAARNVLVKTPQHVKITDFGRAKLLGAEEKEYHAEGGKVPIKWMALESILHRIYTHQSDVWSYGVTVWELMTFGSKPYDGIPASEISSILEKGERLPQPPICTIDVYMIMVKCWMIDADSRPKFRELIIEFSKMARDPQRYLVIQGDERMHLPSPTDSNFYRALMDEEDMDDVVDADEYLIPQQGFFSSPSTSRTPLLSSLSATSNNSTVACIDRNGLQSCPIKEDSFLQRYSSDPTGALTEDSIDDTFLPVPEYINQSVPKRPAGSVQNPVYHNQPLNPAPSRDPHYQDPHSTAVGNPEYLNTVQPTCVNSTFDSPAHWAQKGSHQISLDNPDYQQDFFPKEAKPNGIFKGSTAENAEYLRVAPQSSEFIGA

[6] = tested on: Epidermal growth factor receptor (Homo sapiens), P00533 [G719C]; assay: as §1; details: at 10 µM
Epidermal growth factor receptor (Homo sapiens), P00533 [G719C], sequence (P00533 whole entry G719C): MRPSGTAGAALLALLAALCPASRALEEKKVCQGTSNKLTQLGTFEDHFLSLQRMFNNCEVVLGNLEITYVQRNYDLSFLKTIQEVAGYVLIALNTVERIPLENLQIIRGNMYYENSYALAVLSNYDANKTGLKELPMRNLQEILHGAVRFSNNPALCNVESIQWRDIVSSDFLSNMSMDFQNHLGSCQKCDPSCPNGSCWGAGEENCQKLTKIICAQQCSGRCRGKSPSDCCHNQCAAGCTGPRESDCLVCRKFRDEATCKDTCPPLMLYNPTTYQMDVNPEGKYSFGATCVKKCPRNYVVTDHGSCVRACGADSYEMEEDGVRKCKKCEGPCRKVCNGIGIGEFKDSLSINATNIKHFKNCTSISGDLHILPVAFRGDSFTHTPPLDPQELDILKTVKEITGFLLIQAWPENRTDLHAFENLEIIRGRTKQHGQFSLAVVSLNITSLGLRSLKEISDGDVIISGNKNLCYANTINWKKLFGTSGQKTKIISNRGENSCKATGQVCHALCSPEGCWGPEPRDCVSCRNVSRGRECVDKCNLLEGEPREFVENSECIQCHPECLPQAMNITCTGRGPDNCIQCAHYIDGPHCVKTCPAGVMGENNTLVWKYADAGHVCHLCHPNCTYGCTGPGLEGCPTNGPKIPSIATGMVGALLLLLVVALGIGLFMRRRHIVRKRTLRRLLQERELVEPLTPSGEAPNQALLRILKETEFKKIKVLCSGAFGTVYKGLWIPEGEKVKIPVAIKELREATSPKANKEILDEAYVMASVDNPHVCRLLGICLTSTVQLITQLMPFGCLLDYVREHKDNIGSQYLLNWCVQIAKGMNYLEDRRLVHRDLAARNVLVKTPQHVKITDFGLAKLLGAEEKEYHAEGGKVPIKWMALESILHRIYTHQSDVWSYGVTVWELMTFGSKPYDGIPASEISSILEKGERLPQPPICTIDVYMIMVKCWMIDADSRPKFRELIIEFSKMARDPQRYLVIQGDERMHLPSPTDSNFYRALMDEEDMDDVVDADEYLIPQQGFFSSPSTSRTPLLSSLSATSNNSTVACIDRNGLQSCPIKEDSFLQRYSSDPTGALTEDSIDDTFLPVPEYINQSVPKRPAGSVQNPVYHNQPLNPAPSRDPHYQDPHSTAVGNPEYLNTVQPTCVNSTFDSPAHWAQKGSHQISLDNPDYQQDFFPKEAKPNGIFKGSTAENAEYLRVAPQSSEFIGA

[7] = tested on: Epidermal growth factor receptor (Homo sapiens), P00533 [G719S]; assay: as §1; details: at 10 µM
Epidermal growth factor receptor (Homo sapiens), P00533 [G719S], sequence (P00533 whole entry G719S): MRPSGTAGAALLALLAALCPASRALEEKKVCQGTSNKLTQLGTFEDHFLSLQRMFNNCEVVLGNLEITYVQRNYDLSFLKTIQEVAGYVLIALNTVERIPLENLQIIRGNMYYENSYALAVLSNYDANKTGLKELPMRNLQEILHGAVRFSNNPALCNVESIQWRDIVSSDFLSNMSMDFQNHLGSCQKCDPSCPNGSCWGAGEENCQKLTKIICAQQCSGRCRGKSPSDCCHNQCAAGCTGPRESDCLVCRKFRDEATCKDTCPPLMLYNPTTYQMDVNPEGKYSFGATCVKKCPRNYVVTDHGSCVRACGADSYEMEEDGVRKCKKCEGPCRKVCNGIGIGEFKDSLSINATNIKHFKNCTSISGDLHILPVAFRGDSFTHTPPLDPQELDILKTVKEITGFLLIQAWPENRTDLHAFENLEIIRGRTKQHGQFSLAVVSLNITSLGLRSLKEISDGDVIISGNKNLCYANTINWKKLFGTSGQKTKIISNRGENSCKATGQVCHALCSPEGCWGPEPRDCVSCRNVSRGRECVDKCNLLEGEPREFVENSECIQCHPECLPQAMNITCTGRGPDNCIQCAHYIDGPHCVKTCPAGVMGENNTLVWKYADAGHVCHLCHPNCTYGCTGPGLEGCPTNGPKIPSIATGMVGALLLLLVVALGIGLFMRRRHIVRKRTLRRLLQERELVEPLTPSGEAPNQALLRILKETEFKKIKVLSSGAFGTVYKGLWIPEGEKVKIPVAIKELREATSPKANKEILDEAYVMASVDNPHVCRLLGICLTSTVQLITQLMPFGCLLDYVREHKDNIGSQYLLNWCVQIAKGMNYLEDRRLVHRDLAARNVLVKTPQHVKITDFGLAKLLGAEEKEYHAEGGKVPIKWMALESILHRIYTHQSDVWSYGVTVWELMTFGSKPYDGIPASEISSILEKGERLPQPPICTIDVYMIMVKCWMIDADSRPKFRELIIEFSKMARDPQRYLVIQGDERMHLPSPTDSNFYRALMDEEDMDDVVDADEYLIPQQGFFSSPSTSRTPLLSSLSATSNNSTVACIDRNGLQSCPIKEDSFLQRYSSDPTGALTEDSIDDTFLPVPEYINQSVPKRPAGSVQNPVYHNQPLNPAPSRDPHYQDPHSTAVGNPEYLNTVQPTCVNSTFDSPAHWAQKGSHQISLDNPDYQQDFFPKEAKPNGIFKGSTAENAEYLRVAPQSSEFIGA

[8] = tested on: Epidermal growth factor receptor (Homo sapiens), P00533 [L858R,T790M]; assay: as §1; details: at 10 µM
[9] = tested on: Epidermal growth factor receptor (Homo sapiens), P00533 [UNDEFINED MUTATION]; assay: as §1; details: at 10 µM

- % of inhibition [1]: -2%
Structure (SMILES): CN1Cc2nccc(-c3cn(C)nc3-c3ccc(F)cc3)c2C1=O

- % of control [2]: 100%
Structure (SMILES): CCN(CC)CCCCNc1ncc2cc(-c3cc(OC)cc(OC)c3)c(NC(=O)NC(C)(C)C)nc2n1

Structure (SMILES): Nc1cnc(N2CCc3cc(S(=O)(=O)Nc4c(F)cc(Cl)cc4F)cc(N4CCCC4=O)c32)nc1 [TP-020n]
- % of control [3]: 94%

Structure (SMILES): O=C(NOC[C@H](O)CO)c1ccc(F)c(F)c1Nc1ccc(I)cc1F
- % of control [4]: 77%
- % of control [5]: 79%
- % of control [6]: 86%
- % of control [7]: 66%
- % of control [8]: 100%
- % of control [9]: 84%
